According to publication PMC8296573, “Synthesis and Biological Evaluation of Fingolimod Derivatives as Antibacterial Agents” (ACS Omega, 2021):
Values after ≈ are worked out from the molar mass of the structure shown. Read-outs that look alike come from different tables or passages of the source.

Key:
S. aureus ATCC 25923 [1] = assay: Antibacterial activity, pre-exposure (planktonic cells and biofilm formation); format: cell-based, Staphylococcus aureus; conditions: for MIC / inhibition at 5 µM / inhibition at 10 µM / inhibition at 15 µM / inhibition at 25 µM: Staphylococcus aureus, ATCC25923; for inhibition at 5 µM / inhibition at 10 µM / inhibition at 15 µM / inhibition at 25 µM / Average inhibition %, biofilms viability / Average inhibition %, planktonic cells viability: pre-exposure, ± SD
Method in brief: (§1)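 Pre-exposure format: compound and bacterial culture co-incubated 18 h, 37 °C, aerobic, 220 rpm. Planktonic: turbidity (OD) plus resazurin viability, 20 μM final. Biofilm: PBS wash, 20 μM resazurin, then ethanol fixation and crystal violet staining, A595.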

S. aureus ATCC 25923 [2] = assay: Antibacterial activity, post-exposure on preformed 18-h-old biofilms; format: cell-based, Staphylococcus aureus; conditions: ± SD; for inhibition at 25 µM / inhibition at 50 µM / inhibition at 100 µM / inhibition at 200 µM: Staphylococcus aureus; for inhibition at 25 µM: ATCC25923, 25 µM; for inhibition at 50 µM: ATCC25923, 50 µM; for inhibition at 100 µM: ATCC25923, 100 µM; for inhibition at 200 µM: ATCC25923, 200 µM
Method in brief: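 Compounds were applied to preformed 18-h biofilms after medium change and left 24 h. Read-outs: planktonic OD plus resazurin fluorescence (20 μM), biofilm metabolic activity by resazurin 30 min at 37 °C, then biomass by crystal violet absorbance at 595 nm after ethanol fixation.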

A. baumannii NCTC 13423 = assay: Antibacterial activity, pre-exposure; format: cell-based, Acinetobacter baumannii; conditions: for Average inhibition %, biofilms viability / Average inhibition %, planktonic cells viability / inhibition at 10 µM / inhibition at 15 µM / inhibition at 25 µM / inhibition at 50 µM: A. baumannii NCTC 13423, pre-exposure, ± SD; for inhibition at 10 µM / inhibition at 15 µM / inhibition at 25 µM / inhibition at 50 µM / MIC: Acinetobacter baumannii, NCTC13423
Method in brief: as §1

P. aeruginosa ATCC 9027 = assay: Antibacterial activity, pre-exposure; format: cell-based, Pseudomonas aeruginosa; conditions: for Average inhibition %, biofilms viability / Average inhibition %, planktonic cells viability / inhibition at 50 µM / inhibition at 100 µM / inhibition at 150 µM / inhibition at 200 µM: P. aeruginosa ATCC 9027, pre-exposure, ± SD; for inhibition at 50 µM / inhibition at 100 µM / inhibition at 150 µM / inhibition at 200 µM: Pseudomonas aeruginosa, ATCC9027
Method in brief: as §1

[3] = 10 µM, read-out: Average inhibition %, biofilms biomass
[4] = 10 µM, read-out: Average inhibition %, planktonic cells turbidity
[5] = 15 µM, read-out: Average inhibition %, biofilms biomass
[6] = 15 µM, read-out: Average inhibition %, planktonic cells turbidity
[7] = 25 µM, read-out: Average inhibition %, biofilms biomass
[8] = 25 µM, read-out: Average inhibition %, planktonic cells turbidity
[9] = read-out: Average inhibition %, biofilms biomass
[10] = read-out: Average inhibition %, planktonic cells turbidity
[11] = 50 µM, read-out: Average inhibition %, biofilms biomass
[12] = 50 µM, read-out: Average inhibition %, planktonic cells turbidity

MIC (S. aureus ATCC 25923 [1]; lowest concentration with no visible growth (>90% inhibition of turbidity and viability of planktonic cells), 18 h, read-out: MIC S. aureus ATCC 25923): 10 µM (≈ 3.59 µg/mL)
MIC (S. aureus ATCC 25923 [1]; read-out: MIC (S. aureus)): 10 µM (≈ 3.59 µg/mL)
MIC (A. baumannii NCTC 13423; pre-exposure, Inactive = no activity up to 50 μM, > = some inhibition but no MIC reached, read-out: MIC A. baumannii NCTC 13423): 15 to 25 µM (≈ 5.38 to 8.96 µg/mL)
MIC (A. baumannii NCTC 13423; supplementary molecular formula strings sheet, read-out: MIC (A. baumannii)): 15 to 25 µM (≈ 5.38 to 8.96 µg/mL)
MIC P. aeruginosa ATCC 9027 (P. aeruginosa ATCC 9027; pre-exposure, Inactive = no activity up to 200 μM, > = some inhibition but no MIC reached): Inactive
Structure (SMILES): CCCCCCCCc1ccc2nc(CCC(N)(CO)CO)ccc2c1 [Compound 80, 2-Amino-2-[2-(6-octylquinolin-2-yl)ethyl]propane-1,3-diol]
inhibition at 5 µM (S. aureus ATCC 25923 [1]; 5 µM, read-out: Average inhibition %, biofilms biomass): 24.2 ± 6.6%
inhibition at 5 µM (S. aureus ATCC 25923 [1]; 5 µM, read-out: Average inhibition %, planktonic cells turbidity): 43 ± 17%
inhibition at 10 µM (S. aureus ATCC 25923 [1]; [3]): 97.6 ± 1%
inhibition at 10 µM (S. aureus ATCC 25923 [1]; [4]): 99 ± 0.7%
inhibition at 15 µM (S. aureus ATCC 25923 [1]; [5]): 97.3 ± 0.6%
inhibition at 15 µM (S. aureus ATCC 25923 [1]; [6]): 99.5 ± 0.3%
inhibition at 25 µM (S. aureus ATCC 25923 [1]; [7]): 92.3 ± 1.5%
inhibition at 25 µM (S. aureus ATCC 25923 [1]; [8]): 99.1 ± 0.3%
Average inhibition %, biofilms viability (S. aureus ATCC 25923 [1]; 5 µM): 26.7 ± 15.1%
Average inhibition %, planktonic cells viability (S. aureus ATCC 25923 [1]; 5 µM): 13.9 ± 22.4%
Average inhibition %, biofilms viability (S. aureus ATCC 25923 [1]; 10 µM): 99.2 ± 1.4%
Average inhibition %, planktonic cells viability (S. aureus ATCC 25923 [1]; 10 µM): 99.4 ± 0%
Average inhibition %, biofilms viability (S. aureus ATCC 25923 [1]; 15 µM): 99.5 ± 0.5%
Average inhibition %, planktonic cells viability (S. aureus ATCC 25923 [1]; 15 µM): 99.5 ± 0%
Average inhibition %, biofilms viability (S. aureus ATCC 25923 [1]; 25 µM): 99.4 ± 0.3%
Average inhibition %, planktonic cells viability (S. aureus ATCC 25923 [1]; 25 µM): 99.7 ± 0%
Average inhibition %, biofilms viability (S. aureus ATCC 25923 [2]; 25 µM): 13.8 ± 11.7%
Average inhibition %, planktonic cells viability (S. aureus ATCC 25923 [2]; 25 µM): 17.5 ± 26.7%
Average inhibition %, biofilms viability (S. aureus ATCC 25923 [2]; 50 µM): 29.8 ± 10.2%
Average inhibition %, planktonic cells viability (S. aureus ATCC 25923 [2]; 50 µM): 21.5 ± 33.1%
Average inhibition %, biofilms viability (S. aureus ATCC 25923 [2]; 100 µM): 48.6 ± 5.2%
Average inhibition %, planktonic cells viability (S. aureus ATCC 25923 [2]; 100 µM): 81 ± 8%
Average inhibition %, biofilms viability (S. aureus ATCC 25923 [2]; 200 µM): 48.4 ± 12%
Average inhibition %, planktonic cells viability (S. aureus ATCC 25923 [2]; 200 µM): 93.2 ± 1.3%
inhibition at 25 µM (S. aureus ATCC 25923 [2]; [9]): 25.1 ± 16.4%
inhibition at 25 µM (S. aureus ATCC 25923 [2]; [10]): 31.7 ± 26.5%
inhibition at 50 µM (S. aureus ATCC 25923 [2]; [9]): 50.2 ± 3.2%
inhibition at 50 µM (S. aureus ATCC 25923 [2]; [10]): 26 ± 39.1%
inhibition at 100 µM (S. aureus ATCC 25923 [2]; [9]): 61.9 ± 7.7%
inhibition at 100 µM (S. aureus ATCC 25923 [2]; [10]): 64.3 ± 18.5%
inhibition at 200 µM (S. aureus ATCC 25923 [2]; [9]): 51.5 ± 9.6%
inhibition at 200 µM (S. aureus ATCC 25923 [2]; [10]): 73.4 ± 9.8%
Average inhibition %, biofilms viability (A. baumannii NCTC 13423; 10 µM): 0 ± 0%
Average inhibition %, planktonic cells viability (A. baumannii NCTC 13423; 10 µM): 7.2 ± 5.2%
Average inhibition %, biofilms viability (A. baumannii NCTC 13423; 15 µM): 71.9 ± 26.2%
Average inhibition %, planktonic cells viability (A. baumannii NCTC 13423; 15 µM): 98.9 ± 0.3%
Average inhibition %, biofilms viability (A. baumannii NCTC 13423; 25 µM): 101.6 ± 1.6%
Average inhibition %, planktonic cells viability (A. baumannii NCTC 13423; 25 µM): 99.6 ± 0.1%
Average inhibition %, biofilms viability (A. baumannii NCTC 13423; 50 µM): 101.8 ± 1.3%
Average inhibition %, planktonic cells viability (A. baumannii NCTC 13423; 50 µM): 99.5 ± 0.2%
inhibition at 10 µM (A. baumannii NCTC 13423; [3]): 1.6 ± 2.8%
inhibition at 10 µM (A. baumannii NCTC 13423; [4]): 0.8 ± 1.5%
inhibition at 15 µM (A. baumannii NCTC 13423; [5]): 53 ± 33.4%
inhibition at 15 µM (A. baumannii NCTC 13423; [6]): 96.4 ± 3%
inhibition at 25 µM (A. baumannii NCTC 13423; [7]): 84.3 ± 5.9%
inhibition at 25 µM (A. baumannii NCTC 13423; [8]): 99 ± 0.9%
inhibition at 50 µM (A. baumannii NCTC 13423; [11]): 74.7 ± 11.4%
inhibition at 50 µM (A. baumannii NCTC 13423; [12]): 98.8 ± 0.9%
Average inhibition %, biofilms viability (P. aeruginosa ATCC 9027; 50 µM): 9.8 ± 12.2%
Average inhibition %, planktonic cells viability (P. aeruginosa ATCC 9027; 50 µM): 39.9 ± 11%
Average inhibition %, biofilms viability (P. aeruginosa ATCC 9027; 100 µM): 10.5 ± 10%
Average inhibition %, planktonic cells viability (P. aeruginosa ATCC 9027; 100 µM): 46.1 ± 11.6%
Average inhibition %, biofilms viability (P. aeruginosa ATCC 9027; 150 µM): 14.3 ± 12.2%
Average inhibition %, planktonic cells viability (P. aeruginosa ATCC 9027; 150 µM): 22.9 ± 1.7%
Average inhibition %, biofilms viability (P. aeruginosa ATCC 9027; 200 µM): 15.3 ± 15.9%
Average inhibition %, planktonic cells viability (P. aeruginosa ATCC 9027; 200 µM): 33.1 ± 16.1%
inhibition at 50 µM (P. aeruginosa ATCC 9027; [11]): 5.2 ± 5.2%
inhibition at 50 µM (P. aeruginosa ATCC 9027; [12]): 48 ± 11.1%
inhibition at 100 µM (P. aeruginosa ATCC 9027; 100 µM, read-out: Average inhibition %, biofilms biomass): 0%
inhibition at 100 µM (P. aeruginosa ATCC 9027; 100 µM, read-out: Average inhibition %, planktonic cells turbidity): 55.5 ± 5.2%
inhibition at 150 µM (P. aeruginosa ATCC 9027; 150 µM, read-out: Average inhibition %, biofilms biomass): 12.1 ± 10.7%
inhibition at 150 µM (P. aeruginosa ATCC 9027; 150 µM, read-out: Average inhibition %, planktonic cells turbidity): 42.1 ± 13.6%
inhibition at 200 µM (P. aeruginosa ATCC 9027; 200 µM, read-out: Average inhibition %, biofilms biomass): 12.3 ± 19.1%
inhibition at 200 µM (P. aeruginosa ATCC 9027; 200 µM, read-out: Average inhibition %, planktonic cells turbidity): 55.3 ± 0.9%
